The values that follow come from patent publication US7511145B2 (Genelabs Technologies, Inc., priority 2003, dated 2009).

This experiment has as its target T1, HCV-NS5b (Hepatitis C virus genotype 1b, UniProt Q9WMX2).
T1 construct: (His)6 (C); made in house; host or cells: XL-1 cells (E. coli), IPTG-inducible plasmid, nickel-NTA purification
In words: HCV-NS5b enzyme assay (incorporation of radiolabeled UTP). It counts as biochemical. The note with it: for inhibition at 100 µM: read-out: % inh@100, enzyme inhibition at compound concentration of 100 uM. An outline of the steps: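 His6-tagged NS5b lacking the C-terminal 21 residues, expressed in XL-1 and Ni-NTA purified. Reaction at pH 7.5 with 5 mM MgCl2, 10 μM each NTP including [3H]-UTP and biotinylated HCV heteropolymeric template, 2 h at 37° C; SPA read-out; % inhibition at 100 and 33 uM versus no-compound control, background subtracted.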

The mark [1] stands for this setting: enzyme inhibition at compound concentration of 33 uM.

As for `NC(=O)CC[C@H](NC(=O)c1ccc2c(c1)nc(-c1ccc3nc(-c4ccccc4)cnc3c1)n2C1CCCCC1)C(=O)O` [Compound 541, 4-Carbamoyl-2-{[1-cyclohexyl-2-(2-phenyl-quinoxalin-6-yl)-1H-benzoimidazole-5-carbonyl]-amino}-butyric acid], the inhibition at 100 µM is 98.1%. Further, the inhibition at 33 µM under setting [1] amounted to 76.1%.

Turning to `NC(=O)[C@H](Cc1ccccc1)NC(=O)c1ccc2cc(-c3nc4cc(C(=O)O)ccc4n3C3CCCCC3)ccc2n1` [Compound 542, 2-[2-(1-Carbamoyl-2-phenylethylcarbamoyl)quinolin-6-yl]-1-cyclohexyl-1H-benzimidazole-5-carboxylic acid], the inhibition at 100 µM is 98.6%. Also, the inhibition at 33 µM under setting [1] was 81.1%.

Regarding `COc1ccc(-c2ccc(Cl)cc2)c(-c2ccc3cc(-c4nc5cc(C(=O)O)ccc5n4C4CCC(C)CC4)ccc3n2)c1` (stereo not shown) [Compound 543, 2-[2-(4′-chloro-4-methoxy-biphen-2-yl)-quinolin-6-yl]-1-(4-methyl-cyclohexyl)-1H-benzoimidazole-5-carboxylic acid], the inhibition at 100 µM stood at 102%. Under setting [1], the inhibition at 33 µM is 102%.

In the case of `COc1ccc(-c2ccccc2F)c(-c2ccc3cc(-c4nc5cc(C(=O)O)ccc5n4C4CCCCC4)ccc3n2)c1` [Compound 544, 1-Cyclohexyl-2-[2-(2′-fluoro-4-methoxy-biphen-2-yl)-quinolin-6-yl]-1H-benzoimidazole-5-carboxylic acid], the inhibition at 100 µM is 100%. Also, the inhibition at 33 µM under setting [1] came to 102%.

Turning to `COc1ccc(C2CCCCC2)c(-c2ccc3cc(-c4nc5cc(C(=O)O)ccc5n4C4CCCCC4)ccc3n2)c1` [Compound 545, 1-Cyclohexyl-2-[2-(2-cyclohexyl-5-methoxy-phenyl)-quinolin-6-yl]-1H-benzoimidazole-5-carboxylic acid], the inhibition at 100 µM is 101%. The inhibition at 33 µM under setting [1] was found to be 99.2%.

As to `CN(C(=O)c1ccc2cc(-c3nc4cc(C(=O)O)ccc4n3C3CCCCC3)ccc2n1)c1ccc(Cl)cc1` [Compound 546], the inhibition at 100 µM was 102%. In addition, the inhibition at 33 µM under setting [1] came to 95.3%.

As for `COc1ccc(-c2ccc(Cl)cc2)c(-c2ccc3cc(-c4nc5cc(C(=O)O)ccc5n4C4CCC(C)CC4)ccc3n2)c1` (stereo not shown) [Compound 547, 2-[2-(4′-chloro-4-methoxy-biphen-2-yl)-quinolin-6-yl]-1-(4-methyl-cyclohexyl)-1H-benzoimidazole-5-carboxylic acid], the “% inh@33” value (enzyme inhibition at compound concentration of 33 uM, 33 µM) is reported as 102.71%. Besides, the “% inh@100” value (enzyme inhibition at compound concentration of 100 uM, 100 µM) is 101.82%.

With `COc1ccc(-c2ccccc2C)c(-c2ccc3cc(-c4nc5cc(C(=O)O)ccc5n4C4CCCCC4)ccc3n2)c1` [Compound 548], the inhibition at 100 µM was 101%. Under setting [1], the inhibition at 33 µM was found to be 103%.

For the molecule `O=C(O)c1ccc2c(c1)nc(-c1ccc3nc(-c4cc(C(=O)N5CCCC5)ccc4-c4ccc(F)cc4)ccc3c1)n2C1CCCCC1` [Compound 549, 1-Cyclohexyl-2-{2-[4′-fluoro-4-(pyrrolidine-1-carbonyl)biphen-2-yl]quinolin-6-yl}-1H-benzimidazole-5-carboxylic acid], the inhibition at 100 µM was 102%. Also, the inhibition at 33 µM under setting [1] was determined as 100%.

For `CC(C)N(C(=O)c1ccc2cc(-c3nc4cc(C(=O)O)ccc4n3C3CCCCC3)ccc2n1)c1ccc(Cl)cc1` [Compound 550, 2-{2-[(4-Chlorophenyl)isopropylcarbamoyl]quinolin-6-yl}-1-cyclohexyl-1H-benzimidazole-5-carboxylic acid], the inhibition at 100 µM was 102%. In addition, the inhibition at 33 µM under setting [1] was 99.1%.

In the case of `O=C(O)c1ccc2c(c1)nc(-c1ccc3nc(C(=O)N(c4ccc(Cl)cc4)C4CCCCC4)ccc3c1)n2C1CCCCC1` [Compound 551, 2-{2-[(4-Chlorophenyl)cyclohexylcarbamoyl]quinolin-6-yl}-1-cyclohexyl-1H-benzimidazole-5-carboxylic acid], the inhibition at 100 µM worked out at 95.7%. The inhibition at 33 µM under setting [1] is 87.5%.

With `COc1ccc(-c2ccccc2OC)c(-c2ccc3cc(-c4nc5cc(C(=O)O)ccc5n4C4CCCCC4)ccc3n2)c1` [Compound 552, 1-Cyclohexyl-2-[2-(4,2′-dimethoxy-biphen-2-yl)-quinolin-6-yl]-1H-benzoimidazole-5-carboxylic acid], the inhibition at 100 µM is 101%. Besides, the inhibition at 33 µM under setting [1] is 101%.

Regarding `COc1ccc(-c2ccc(Cl)cc2)c(-c2ccc3cc(-c4nc5cc(C(=O)O)ccc5n4C4CC(C)CC(C)(C)C4)ccc3n2)c1` (stereo not shown) [Compound 555, 2-[2-(4′-chloro-4-methoxy-biphen-2-yl)-quinolin-6-yl]-1-(3,3,5-trimethyl-cyclohexyl)-1H-benzoimidazole-5-carboxylic acid], the inhibition at 100 µM was determined as 101%. Moreover, the inhibition at 33 µM under setting [1] stood at 101%.

As to `COc1ccc(-c2ccc(Cl)cc2)c(-c2ccc3cc(-c4nc5cc(C(=O)O)ccc5n4C4CCCCC4C)ccc3n2)c1` (stereo not shown) [Compound 556, 2-[2-(4′-Chloro-4-methoxy-biphen-2-yl)-quinolin-6-yl]-1-(2-methyl-cyclohexyl)-1H-benzoimidazole-5-carboxylic acid], the inhibition at 100 µM amounted to 102%. Moreover, the inhibition at 33 µM under setting [1] stood at 103%.

With `CCc1ccc(-c2ccc(OC)cc2-c2ccc3cc(-c4nc5cc(C(=O)O)ccc5n4C4CCCCC4)ccc3n2)cc1` [Compound 557, 1-Cyclohexyl-2-[2-(4′-ethyl-4-methoxy-biphen-2-yl)-quinolin-6-yl]-1H-benzoimidazole-5-carboxylic acid], the inhibition at 100 µM is 101%. Further, the inhibition at 33 µM under setting [1] amounted to 103%.

On to `COc1ccc(-c2ccc(Cl)cc2)c(-c2ccc3cc(-c4nc5cc(C(=O)O)ccc5n4C4CCNCC4)ccc3n2)c1` [Compound 558, 2-[2-(4′-Chloro-4-methoxy-biphen-2-yl)-quinolin-6-yl]-1-piperidin-4-yl-1H-benzoimidazole-5-carboxylic acid], for which the inhibition at 100 µM came out at 77.3%. In addition, the inhibition at 33 µM under setting [1] is 32.5%.

Consider `COc1ccc(-c2ccc(Cl)cc2)c(-c2ccc3cc(-c4nc5cc(C(=O)O)ccc5n4Cc4ccccc4)ccc3n2)c1` [Compound 559, 1-Benzyl-2-[2-(4′-chloro-4-methoxy-biphen-2-yl)-quinolin-6-yl]-1H-benzoimidazole-5-carboxylic acid], for which the inhibition at 100 µM is 101%. Also, the inhibition at 33 µM under setting [1] worked out at 101%.

Turning to `COc1ccc(-c2ccc(F)c(F)c2)c(-c2ccc3cc(-c4nc5cc(C(=O)O)ccc5n4C4CCCCC4)ccc3n2)c1` [Compound 560, 1-Cyclohexyl-2-[2-(3′,4′-difluoro-4-methoxy-biphen-2-yl)-quinolin-6-yl]-1H-benzoimidazole-5-carboxylic acid], the inhibition at 100 µM is 101%. The inhibition at 33 µM under setting [1] was 101%.

As to `COc1ccc(-c2cc(Cl)cc(Cl)c2)c(-c2ccc3cc(-c4nc5cc(C(=O)O)ccc5n4C4CCCCC4)ccc3n2)c1` [Compound 562, 1-Cyclohexyl-2-[2-(3′,5′-dichloro-4-methoxy-biphen-2-yl)-quinolin-6-yl]-1H-benzoimidazole-5-carboxylic acid], the inhibition at 100 µM was determined as 101%. For the same molecule, under setting [1], the inhibition at 33 µM was 102%.

Consider `O=C(O)c1ccc2c(c1)nc(-c1ccc3nc(-c4cc(F)ccc4-c4ccc(Cl)cc4)ccc3c1)n2C1CCCCC1` [Compound 563, 2-[2-(4′-Chloro-4-fluoro-biphen-2-yl)-quinolin-6-yl]-1-cyclohexyl-1H-benzoimidazole-5-carboxylic acid], for which the inhibition at 100 µM was found to be 101%. For the same molecule, the inhibition at 33 µM under setting [1] is 101%.

Consider `CCC(CC)n1c(-c2ccc3nc(-c4cc(OC)ccc4-c4ccc(Cl)cc4)ccc3c2)nc2cc(C(=O)O)ccc21` [Compound 564, 2-[2-(4′-Chloro-4-methoxy-biphen-2-yl)-quinolin-6-yl]-1-(1-ethyl-propyl)-1H-benzoimidazole-5-carboxylic acid], for which the inhibition at 100 µM was 101%. The inhibition at 33 µM under setting [1] was determined as 102%.

On to `O=C(O)c1ccc2c(c1)nc(-c1ccc3nc(-c4cc5c(cc4-c4ccc(Cl)cc4)OCCCO5)ccc3c1)n2C1CCCCC1` [Compound 565, 2-{2-[8-(4-chloro-phenyl)-3,4-dihydro-2H-benzo[b][1,4]dioxepin-7-yl]-quinolin-6-yl}-1-cyclohexyl-1H-benzoimidazole-5-carboxylic acid], for which the inhibition at 100 µM worked out at 100%. Also, the inhibition at 33 µM under setting [1] was 102%.

Turning to `COc1ccc(-c2ccc(Cl)cc2)c(-c2ccc3cc(-c4nc5cc(C(=O)O)ccc5n4CC4CCCO4)ccc3n2)c1` (stereo not shown) [Compound 566, 2-[2-(4′-chloro-4-methoxy-biphen-2-yl)-quinolin-6-yl]-1-(tetrahydrofuran-2-yl-methyl)-1H-benzoimidazole-5-carboxylic acid], the inhibition at 100 µM was found to be 100%. Also, the inhibition at 33 µM under setting [1] worked out at 99.2%.

For `O=C(O)c1ccc2c(c1)nc(-c1ccc3nc(-c4cc(Cl)ccc4-c4ccc(Cl)cc4)ccc3c1)n2C1CCCCC1` [Compound 567, 1-cyclohexyl-2-[2-(4,4′-dichloro-biphen-2-yl)-quinolin-6-yl]-1H-benzoimidazole-5-carboxylic acid], the inhibition at 100 µM came out at 97.7%. Further, under setting [1], the inhibition at 33 µM amounted to 101%.

In the case of `COc1ccc(-c2ccc(Cl)cc2)c(-c2ccc3cc(-c4nc5cc(C(=O)O)ccc5n4C4CC5CCC4C5)ccc3n2)c1` (stereo not shown) [Compound 568, 1-bicyclo[2.2.1]hept-2-yl-2-[2-(4′-chloro-4-methoxy-biphen-2-yl)-quinolin-6-yl]1H-benzoimidazole-5-carboxylic acid], the inhibition at 100 µM was found to be 100%. Also, the inhibition at 33 µM under setting [1] was 101%.

For `Nc1ccc(-c2ccc(Cl)cc2)c(-c2ccc3cc(-c4nc5cc(C(=O)O)ccc5n4C4CCCCC4)ccc3n2)c1` [Compound 569, 2-[2-(4-amino-4′-chloro-biphen-2-yl)-quinolin-6-yl]-1-cyclohexyl-1H-benzoimidazole-5-carboxylic acid], the inhibition at 100 µM amounted to 101%. Besides, the inhibition at 33 µM under setting [1] was determined as 101%.
